# In US11000033B2, “Ketone or oxime compound, and herbicide” (NISSAN CHEMICAL CORPORATION, priority 2014, dated 2021):
# Experiments:
# Format in all cases: in vivo
# [1] = system: Echinochloa oryzacola Vasing.; assay: Test Example 1: herbicidal activity, application before weed generation in submerged conditions (symbol A); conditions: application herbicide amount 320 g/ha
# How it was run: (§1)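 Pre-emergence, paddy conditions: emulsifiable formulation diluted in water, dosed onto floodwater (4 cm depth) on sowing day. Alluvial soil; weeds sown mixed; rice transplanted at 2.5-leaf stage. Greenhouse 25–30 °C, 3 wk. Score 0–5 (5 = ≥90% kill, 0 = ≤5%).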
# Monochoria vaginalis = assay: Test Example 1: herbicidal activity, application before weed generation in submerged conditions (symbol C); conditions: application herbicide amount 320 g/ha
# How it was run: as §1
# [2] = system: Echinochloa oryzacola Vasing.; assay: Test Example 2: herbicidal activity, application during weed generation in submerged conditions (symbol A); conditions: Table 23; application herbicide amount 320 g/ha; grade 0-5 by criteria of Test Example 1
# How it was run: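 Read-out: herbicidal effect on each species rated on a visual scale 3 weeks after treatment. Plants were raised together from seed in flooded alluvial soil (4 cm water) at 25° C. to 30° C. and treated at one to two leaves by water-surface application of diluted emulsion.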
# Digitaria ciliaris = assay: Test Example 4: herbicidal effect by soil treatment (symbol F); conditions: application herbicide amount 320 g/ha
# How it was run: (§2)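 Seeds were sown in sterilized diluvial soil, covered with about 1.5 cm of soil, and the soil surface was sprayed with a water-diluted emulsion of the compound at a predetermined rate. Plants grew in a greenhouse at 25° C. to 30° C.; effects were scored visually 3 weeks after application.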
# Veronica persica [3] = assay: Test Example 4: herbicidal effect by soil treatment (symbol R); conditions: application herbicide amount 320 g/ha
# How it was run: as §2
# Avena fatua = assay: Test Example 5: herbicidal effect by foliage application, plastic box (symbol I); conditions: 320 g/ha, 3 weeks after application
# How it was run: (§3)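 Emulsion formulation, diluted with water to the intended rate, was applied uniformly to leaves by small sprayer. Recipients were 14-day greenhouse-grown seedlings (25° C. to 30° C.). Assessment followed at 3 weeks.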
# Lolium multiflorum Lam. = assay: Test Example 5: herbicidal effect by foliage application, plastic box (symbol K); conditions: 320 g/ha, 3 weeks after application
# How it was run: as §3
# Veronica persica [4] = assay: Test Example 5: herbicidal effect by foliage application, plastic box (symbol R); conditions: 320 g/ha, 3 weeks after application
# How it was run: as §3
# corn = assay: Test Example 5: effect on crop by foliage application, plastic box (symbol c); conditions: 320 g/ha, 3 weeks after application
# How it was run: (§4)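 Greenhouse culture at 25° C. to 30° C. followed spot-like sowing into sterilized diluvial soil, with seed covered by roughly 1.5 cm of soil.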
# beet = assay: Test Example 5: effect on crop by foliage application, plastic box (symbol f); conditions: 320 g/ha, 3 weeks after application
# How it was run: as §4
# rapeseed = assay: Test Example 5: effect on crop by foliage application, plastic box (symbol g); conditions: 320 g/ha, 3 weeks after application
# How it was run: as §4
SMILES,"Herbicidal effect grade, A: Echinochloa oryzacola Vasing. [1]","Herbicidal effect grade, C: Monochoria vaginalis (Monochoria vaginalis)","Herbicidal effect grade, A: Echinochloa oryzacola Vasing. [2]","F: Digitaria ciliaris, herbicidal effect grade (Digitaria ciliaris)","R: Veronica persica, herbicidal effect grade (Veronica persica [3])","I: Avena fatua, herbicidal effect (criteria of Test Example 1) (Avena fatua)","K: Lolium multiflorum Lam., herbicidal effect (criteria of Test Example 1) (Lolium multiflorum Lam.)","R: Veronica persica, herbicidal effect (criteria of Test Example 1) (Veronica persica [4])","c: corn, effect on crop (criteria of Test Example 1) (corn)","f: beet, effect on crop (criteria of Test Example 1) (beet)","g: rapeseed, effect on crop (criteria of Test Example 1) (rapeseed)"
CON=C(C)CC1CC(O)=C(c2c(C)cc(C)cc2SC)C1=O (stereo not drawn) [6-075],4 (Herbicidal ratio of 70% or higher and lower than 90%),2 (Herbicidal ratio of 20% or higher and lower than 40%),1 (Herbicidal ratio of 5% or higher and lower than 20%),0 (Herbicidal ratio of 5% or lower (almost no effect)),0 (Herbicidal ratio of 5% or lower (almost no effect)),5 (Herbicidal ratio of 90% or more (almost completely withered)),5 (Herbicidal ratio of 90% or more (almost completely withered)),0 (Herbicidal ratio of 5% or lower (almost no effect)),4 (Herbicidal ratio of 70% or higher and lower than 90%),0 (Herbicidal ratio of 5% or lower (almost no effect)),3 (Herbicidal ratio of 40% or higher and lower than 70%)
"CON=C(C)CC1CC(O)=C(c2c(C)cc(-c3ccc(Cl)cc3)cc2OC)C1=O (stereo not drawn) [6-077, 2-(4′-chloro-3-methoxy-5-methyl-[1,1′-biphenyl]-4-yl)-3-hydroxy-5-{2-(methoxyimino)propyl}cyclopent-2-enone]",5 (Herbicidal ratio of 90% or more (almost completely withered)),3 (Herbicidal ratio of 40% or higher and lower than 70%),5 (Herbicidal ratio of 90% or more (almost completely withered)),5 (Herbicidal ratio of 90% or more (almost completely withered)),4 (Herbicidal ratio of 70% or higher and lower than 90%),5 (Herbicidal ratio of 90% or more (almost completely withered)),5 (Herbicidal ratio of 90% or more (almost completely withered)),4 (Herbicidal ratio of 70% or higher and lower than 90%),5 (Herbicidal ratio of 90% or more (almost completely withered)),4 (Herbicidal ratio of 70% or higher and lower than 90%),5 (Herbicidal ratio of 90% or more (almost completely withered))
"CON=C(C)CC1CC(OC(=O)N2CCOCC2)=C(c2c(C)cc(-c3ccc(Cl)cc3)cc2OC)C1=O (stereo not drawn) [6-078, 2-(4′-chloro-3-methoxy-5-methyl-[1,1′-biphenyl]-4-yl)-4-{2-(methoxyimino)propyl}-3-oxocyclopent-1-ene-1-yl morpholine-4-carboxylate]",5 (Herbicidal ratio of 90% or more (almost completely withered)),4 (Herbicidal ratio of 70% or higher and lower than 90%),4 (Herbicidal ratio of 70% or higher and lower than 90%),5 (Herbicidal ratio of 90% or more (almost completely withered)),0 (Herbicidal ratio of 5% or lower (almost no effect)),5 (Herbicidal ratio of 90% or more (almost completely withered)),4 (Herbicidal ratio of 70% or higher and lower than 90%),3 (Herbicidal ratio of 40% or higher and lower than 70%),5 (Herbicidal ratio of 90% or more (almost completely withered)),0 (Herbicidal ratio of 5% or lower (almost no effect)),4 (Herbicidal ratio of 70% or higher and lower than 90%)
CON=C(C)CC1CC(OC(=O)COc2ccccc2)=C(c2c(C)cc(-c3ccc(Cl)cc3)cc2OC)C1=O (stereo not drawn) [6-079],4 (Herbicidal ratio of 70% or higher and lower than 90%),2 (Herbicidal ratio of 20% or higher and lower than 40%),3 (Herbicidal ratio of 40% or higher and lower than 70%),5 (Herbicidal ratio of 90% or more (almost completely withered)),3 (Herbicidal ratio of 40% or higher and lower than 70%),5 (Herbicidal ratio of 90% or more (almost completely withered)),5 (Herbicidal ratio of 90% or more (almost completely withered)),3 (Herbicidal ratio of 40% or higher and lower than 70%),5 (Herbicidal ratio of 90% or more (almost completely withered)),0 (Herbicidal ratio of 5% or lower (almost no effect)),4 (Herbicidal ratio of 70% or higher and lower than 90%)
CON=C(C)CC1CC(OC(=O)CCCC(C)=O)=C(c2c(C)cc(-c3ccc(Cl)cc3)cc2C)C1=O (stereo not drawn) [6-080],5 (Herbicidal ratio of 90% or more (almost completely withered)),2 (Herbicidal ratio of 20% or higher and lower than 40%),5 (Herbicidal ratio of 90% or more (almost completely withered)),5 (Herbicidal ratio of 90% or more (almost completely withered)),0 (Herbicidal ratio of 5% or lower (almost no effect)),5 (Herbicidal ratio of 90% or more (almost completely withered)),5 (Herbicidal ratio of 90% or more (almost completely withered)),4 (Herbicidal ratio of 70% or higher and lower than 90%),5 (Herbicidal ratio of 90% or more (almost completely withered)),0 (Herbicidal ratio of 5% or lower (almost no effect)),3 (Herbicidal ratio of 40% or higher and lower than 70%)
CON=C(C)CC1CC(OC(=O)SC(C)(C)C)=C(c2c(C)cc(-c3ccc(Cl)cc3)cc2C)C1=O (stereo not drawn) [6-082],5 (Herbicidal ratio of 90% or more (almost completely withered)),4 (Herbicidal ratio of 70% or higher and lower than 90%),4 (Herbicidal ratio of 70% or higher and lower than 90%),5 (Herbicidal ratio of 90% or more (almost completely withered)),3 (Herbicidal ratio of 40% or higher and lower than 70%),5 (Herbicidal ratio of 90% or more (almost completely withered)),5 (Herbicidal ratio of 90% or more (almost completely withered)),4 (Herbicidal ratio of 70% or higher and lower than 90%),5 (Herbicidal ratio of 90% or more (almost completely withered)),0 (Herbicidal ratio of 5% or lower (almost no effect)),4 (Herbicidal ratio of 70% or higher and lower than 90%)
